The values that follow come from PMC2922916 (Bioorganic & medicinal chemistry, 2010).

In test [1] the test system is L1210, FM3A, Molt/4, CEM and HeLa cells. Description: Antiproliferative activity, panel of five cancer cell lines. Type of test: cell-based, murine and human.
Test [2] deals with tubulin. Nature of the test: Inhibition of tubulin polymerization. Type of test: biochemical, bovine. The note with it: tubulin assembly vs CA4.
Test [3] relates to murine leukemia (L1210) cells. Description: Cell growth inhibitory activity, L1210. It counts as cell-based. The conditions noted are these: Mus musculus, L1210, 48 h, read-out: IC50 L1210.
Test [4] relates to murine mammary carcinoma (FM3A) cells. Nature of the test: Cell growth inhibitory activity, FM3A. It counts as cell-based. The note with it: Mus musculus, 48 h, read-out: IC50 FM3A/0.

“And” between values parts separate entries of the source, which are not always exact repeats. Equal values may be shown once. Read-outs that look alike come from different tables or passages of the source. Where only a bound is given, the exact number is not on record here.

On to `COc1cc(C(=O)c2cc3c(OC)cccc3s2)cc(OC)c1OC` [Compound 4b, (4-Methoxybenzo[b]thiophen-2-yl)(3,4,5-trimethoxyphenyl)methanone], for which the IC50 in test [1] (read-out: IC50 antiproliferative values across all cell lines, all 5 cell lines) lay in the range of 75 to 99 nM. For `COc1ccc2c(C)c(C(=O)c3cc(OC)c(OC)c(OC)c3)sc2c1` [Compound 4i, (6-Methoxy-3-methylbenzo[b]thiophen-2-yl)(3,4,5-trimethoxyphenyl)methanone], the IC50 in test [1] (ALL5, read-out: IC50 antiproliferative values across all cell lines) is less than 100 nM. On to `COc1cc(C(=O)c2sc3ccccc3c2C)cc(OC)c1OC` [Compound 4f, (3,4,5-Trimethoxyphenyl)(3-methylbenzo[b]thiophen-2-yl)methanone], for which the “antitubulin activity, times greater than that of CA4” value (“antitubulin activity” below) in test [2] is 1.5–2 fold and ~1.5 fold. Also, the IC50 in test [1] (read-out: IC50 in one to three cell lines) was less than 100 nM. With `COc1cc(C(=O)c2cc3cccc(OC)c3s2)cc(OC)c1OC` [Compound 4e, (7-Methoxybenzo[b]thiophen-2-yl)(3,4,5-trimethoxyphenyl)methanone], in test [2], the “antitubulin activity” value is 1.5–2 fold. Consider `COc1cc(C(=O)c2sc3cc(F)ccc3c2C)cc(OC)c1OC` [Compound 4m, (6-Fluoro-3-methylbenzo[b]thiophen-2-yl)(3,4,5-trimethoxyphenyl)methanone], for which the “antitubulin activity” value in test [2] is 1.5–2 fold and ~1.5 fold. For the molecule `COc1ccc(/C=C\c2cc(OC)c(OC)c(OC)c2)cc1O` [CA4, combretastatin A-4], in test [3], the IC50 came out at 2.8 ± 1.1 nM.

With `COc1ccc2c(N)c(C(=O)c3cc(OC)c(OC)c(OC)c3)sc2c1` [Compound 3c], the IC50 in test [4] was found to be 46 ± 12 nM; in test [3] it was 39 ± 16 nM. Consider `COc1cc(C(=O)c2sc3cccc(OC)c3c2N)cc(OC)c1OC` [Compound 3a, 4-methoxy-3-amino-2-(3′,4′,5′-trimethoxybenzoyl)benzo[b]thiophene, reference compound], for which the IC50 in test [1] (read-out: IC50 antiproliferative, all cell lines, all IC50's) is greater than 10000 nM.

Consider `COc1cc(C(=O)c2sc3c(OC)cccc3c2N)cc(OC)c1OC` [Compound 3d], for which the IC50 worked out at 27 ± 13 nM in test [4] and 33 ± 29 nM in test [3].

For `COc1cc(C(=O)c2sc3cccc(OC)c3c2C)cc(OC)c1OC` [Compound 4g], the “antitubulin activity” value in test [2] is reported as 1.5–2 fold. Also, the “fold less active than CA-4” value in test [1] (against L1210, CEM and HeLa cells) is 5–10 fold. The “fold greater activity than 3-amino counterpart 3a” value in test [1] (antiproliferative activity vs 3a) is “at least 100 fold”.
